The record followed here is ChEMBL document CHEMBL2073804, “Transport of the beta -O-glucuronide conjugate of the tobacco-specific carcinogen 4-(methylnitrosamino)-1-(3-pyridyl)-1-butanol (NNAL) by the multidrug resistance protein 1 (MRP1). Requirement for glutathione or a non-sulfur-containing analog” (J Biol Chem, 2001).

SMILES strings stand for the structures.

This series has as its target ATP-binding cassette sub-family C member 2 (Homo sapiens, UniProt Q92887). Kind of series: TP_TRANSPORTER: uptake in membrane vesicle from MRP2-expressing HEK293T cells. It counts as functional, cell membranes. The following applies: hek293.

Sequence of ATP-binding cassette sub-family C member 2 (Q92887 whole entry): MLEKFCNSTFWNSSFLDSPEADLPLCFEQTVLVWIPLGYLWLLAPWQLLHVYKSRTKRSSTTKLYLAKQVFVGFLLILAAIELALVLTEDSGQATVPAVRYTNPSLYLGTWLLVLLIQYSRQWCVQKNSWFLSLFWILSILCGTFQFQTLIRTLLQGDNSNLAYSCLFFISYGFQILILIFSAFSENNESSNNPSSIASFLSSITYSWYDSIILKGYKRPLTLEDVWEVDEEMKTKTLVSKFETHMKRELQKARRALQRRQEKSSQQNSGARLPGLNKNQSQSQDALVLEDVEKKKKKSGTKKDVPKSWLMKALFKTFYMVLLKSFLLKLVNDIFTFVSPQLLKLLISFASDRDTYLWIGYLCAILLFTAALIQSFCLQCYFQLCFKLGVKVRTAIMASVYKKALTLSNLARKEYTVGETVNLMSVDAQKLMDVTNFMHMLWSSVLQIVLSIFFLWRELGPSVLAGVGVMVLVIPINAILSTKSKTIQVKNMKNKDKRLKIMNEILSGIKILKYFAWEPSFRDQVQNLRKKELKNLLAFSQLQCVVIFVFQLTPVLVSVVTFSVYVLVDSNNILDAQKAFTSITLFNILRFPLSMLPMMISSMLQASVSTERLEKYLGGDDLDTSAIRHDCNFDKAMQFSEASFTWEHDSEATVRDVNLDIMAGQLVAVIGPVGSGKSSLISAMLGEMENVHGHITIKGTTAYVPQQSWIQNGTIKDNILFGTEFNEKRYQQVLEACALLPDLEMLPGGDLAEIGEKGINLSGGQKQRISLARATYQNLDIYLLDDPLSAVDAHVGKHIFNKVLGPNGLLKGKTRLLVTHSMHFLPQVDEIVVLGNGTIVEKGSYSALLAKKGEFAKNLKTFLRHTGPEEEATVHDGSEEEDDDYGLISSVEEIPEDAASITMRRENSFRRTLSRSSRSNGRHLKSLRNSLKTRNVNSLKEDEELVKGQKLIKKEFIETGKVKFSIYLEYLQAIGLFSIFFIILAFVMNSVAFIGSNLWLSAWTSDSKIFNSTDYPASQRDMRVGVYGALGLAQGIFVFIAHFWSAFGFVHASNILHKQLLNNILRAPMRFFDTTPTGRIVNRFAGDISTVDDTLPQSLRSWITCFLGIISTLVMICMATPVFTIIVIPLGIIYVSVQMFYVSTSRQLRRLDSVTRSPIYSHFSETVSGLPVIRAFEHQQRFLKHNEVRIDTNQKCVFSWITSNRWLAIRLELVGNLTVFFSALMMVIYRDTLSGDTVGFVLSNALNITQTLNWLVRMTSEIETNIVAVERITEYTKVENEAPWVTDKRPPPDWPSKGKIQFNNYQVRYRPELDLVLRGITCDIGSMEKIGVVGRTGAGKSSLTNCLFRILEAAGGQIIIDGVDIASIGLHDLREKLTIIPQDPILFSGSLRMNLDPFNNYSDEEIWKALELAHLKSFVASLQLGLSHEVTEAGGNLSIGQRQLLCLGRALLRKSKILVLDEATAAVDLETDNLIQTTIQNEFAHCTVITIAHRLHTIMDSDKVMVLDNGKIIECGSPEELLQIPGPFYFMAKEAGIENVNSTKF

Regarding `CN(CCCC(C[C@@H]1O[C@H](C(=O)O)[C@@H](O)[C@H](O)[C@H]1O)c1cccnc1)N=O` (stereo partly specified), the Activity entry is “substrate [+]”.
